Consider 1 compound from article PMC8209153, “Improvement in aqueous solubility of achiral symmetric cyclofenil by modification to a chiral asymmetric analog” (Scientific Reports, 2021).

Structures are written as SMILES. Values after ≈ are worked out from the molar mass of the structure shown.

Data set [1] is described as follows: Thermodynamic aqueous solubility of the most stable crystals. Format: physicochemical. The conditions noted are these: phosphate buffer/EtOH (6:4), aqueous with cosolvent or surfactant or cyclodextrin, thermodynamic from solid; mixture of 0.067 M phosphate buffer (pH 6.8) and EtOH (6:4); shaken 48 h at 4 °C; most stable crystals. On the procedure:
The crystals were ground with an agate mortar and suspended in a mixture of 0.067 M phosphate buffer (pH 6.8) and EtOH (6:4). The suspension was shaken for 48 h at 4 °C, then filtered through a Millipore Millex-LG filter (0.20 μm). The filtrate was diluted in DMF and subjected to HPLC. The solubility was calculated by the absolute calibration curve method. We used a mixed solvent because the solubility in 0.067 M phosphate buffer (pH 6.8) was too low to allow quantification. EtOH is used clinically as a solubilizer for insoluble drugs such as taxol and pacritaxel. When the solutions were shaken at 37 °C, hydrolysis of the ester moiety occurred, and therefore the suspensions were shaken at 4 °C.

Data set [2] can be described thus: Aqueous solubility in 0.067 M phosphate buffer pH 7.4. The format is physicochemical. The protocol: Cyclofenil (1) is an antagonist of estrogen receptors (ER) α and β that is clinically used to treat menstrual disturbances, anovulatory infertility and menopausal symptoms (Fig. 1). However, 1 has poor aqueous solubility (< 1 μg/mL in 0.067 M phosphate buffer pH 7.4). We considered that this low solubility might be due to the symmetric structure (σ = 2, point group: C2v), and we hypothesized that chemical modification of 1 to an asymmetric structure (point group: Cs and C1) would improve the aqueous solubility. To investigate the relationship between molecular shape (symmetry) and aqueous solubility, we focused on a small chemical modification, that is, introduction of a hydrophobic alkyl group. Cyclofenil (1) is a prodrug that is hydrolyzed by esterases after administration, and the active form is diol 2. Therefore, we initially considered that replacement of an acetyl group on 1 with a different acyl group (3a–d) might improve the aqueous solubility without loss of biological activity. As a second approach, we designed methylated analogs 4a–c substituted at the 2-/3-position of the phenyl group or the 3-position of the cyclohexyl group, respectively. We also designed symmetrical analogs 5a–c and 6 for comparison.

A further data set in a line: LogP. Format: physicochemical. The source says: LogP values of all analogs were higher than that of 1, as expected. […] The observation that the measured crystal densities of 3b, 4a and (R)-4c were lower than that of 1 supports this idea.
Data set [3] can be described thus: Crystal density (X-ray crystallography). The format is physicochemical. The note with it: measured crystal density.
Data set [4] can be described thus: Membrane permeability by retention on IAM column. Format: in vitro ADME. The note with it: IAM.PC.DD2 column, 0.1 M phosphate buffer (pH 6.8) in 60% CH3CN, 1.0 mL/min, 37 °C. The protocol:
Membrane permeability was determined by HPLC on an IAM.PC.DD2 column (Regis Technologies, Inc., 10 μm, 300 Å, 30 mm × 4.6 mm) eluted with mobile phase consisting of 0.1 M phosphate buffer (pH 6.8) and CH3CN (4:6) at a flow rate of 1.0 mL/min, with UV monitoring at 254 nm, 37 °C.
Firstly, we evaluated membrane permeability by using an Immobilized Artificial Membrane (IAM) column, which contains silica gel bearing phosphatidylcholine and widely utilized to predict membrane permeability[31],[32].

For data set [5], the system named is human cryopreserved hepatocytes. The data set is described as follows: Metabolic rate of prodrugs in human cryopreserved hepatocytes. Format: in vitro ADME. The conditions noted are these: human hepatocytes 1.0×10^6 cells/mL, 50 μM, 2 h, 37 °C. On the procedure: The metabolic rate of prodrugs was evaluated using human cryopreserved hepatocytes (Table 3). Although the metabolic rate of 3d with a bulky acyl group was decreased, most of the asymmetric structural analogs, including those with improved aqueous solubility (3b, 4a, (R)-4c), were metabolized to the active form as quickly as 1. Thus, we concluded that the chemical modifications applied here had little effect on the metabolic rate.
(§1) Test compounds (final 50 μM) in DMSO (final 0.5%) were added to a suspension of human hepatocytes (HMCS1S, Thermo Fisher Scientific) at a density of 1.0×10^6 cells/mL. The cells were incubated at 37 °C in humidified incubator (5% CO2) for 2 h, and then acetonitrile was added to stop the reaction. The mixture was vortexed and centrifuged at 15000 rpm for 10 min. HPLC analysis of the supernatant was performed on an analytical column (ODS reversed-phase column, 5 μm, 4.6 mm x 150 mm) eluted with a mobile phase consisting of H2O and CH3CN at a flow rate of 1.0 mL/min at 37 °C, with UV monitoring at 254 nm. Because some analogs were hydrolyzed in the absence of hepatocytes, we also evaluated the hydrolysis rate without hepatocytes.

A short description of data set [6]: Hydrolysis of prodrugs without hepatocytes. The format is in vitro ADME. The note with it: 50 μM, 2 h, 37 °C. The protocol:
as §1

With `CC(=O)Oc1ccc(C(=C2CCCCC2)c2ccc(OC(C)=O)cc2)cc1` [Compound 1, cyclofenil], in data set [1], the solubility (in general, the concentration that dissolves in the medium under given conditions) at 48 h was 7.76 µg/mL (≈ 21.3 µM). The compound further had a solubility in data set [2] of less than 1 µg/mL. The logP (as a rule, the decadic logarithm of the partition coefficient of the neutral form, usually between octanol and water) in “LogP” was determined as 4.91. In data set [3], the Crystal density was 1.268 g/mL. In data set [4], the “Retention time on IAM column” value was determined as 3.15 min. In data set [5], the “Hydrolysis rate with hepatocytes” value was 100%. Also, in data set [6], the “Hydrolysis rate without hepatocytes” value was found to be 14.8%.
